Among the data in ChEMBL document CHEMBL1126120, “Synthesis and biological evaluation of dihydroeptastatin, a novel inhibitor of 3-hydroxy-3-methylglutaryl coenzyme A reductase” (J Med Chem, 1992) are IC50 values, retold here.

The target of assay [1] is T1, 3-hydroxy-3-methylglutaryl-coenzyme A reductase (Homo sapiens, UniProt P04035).
T1 sequence (P04035 whole entry): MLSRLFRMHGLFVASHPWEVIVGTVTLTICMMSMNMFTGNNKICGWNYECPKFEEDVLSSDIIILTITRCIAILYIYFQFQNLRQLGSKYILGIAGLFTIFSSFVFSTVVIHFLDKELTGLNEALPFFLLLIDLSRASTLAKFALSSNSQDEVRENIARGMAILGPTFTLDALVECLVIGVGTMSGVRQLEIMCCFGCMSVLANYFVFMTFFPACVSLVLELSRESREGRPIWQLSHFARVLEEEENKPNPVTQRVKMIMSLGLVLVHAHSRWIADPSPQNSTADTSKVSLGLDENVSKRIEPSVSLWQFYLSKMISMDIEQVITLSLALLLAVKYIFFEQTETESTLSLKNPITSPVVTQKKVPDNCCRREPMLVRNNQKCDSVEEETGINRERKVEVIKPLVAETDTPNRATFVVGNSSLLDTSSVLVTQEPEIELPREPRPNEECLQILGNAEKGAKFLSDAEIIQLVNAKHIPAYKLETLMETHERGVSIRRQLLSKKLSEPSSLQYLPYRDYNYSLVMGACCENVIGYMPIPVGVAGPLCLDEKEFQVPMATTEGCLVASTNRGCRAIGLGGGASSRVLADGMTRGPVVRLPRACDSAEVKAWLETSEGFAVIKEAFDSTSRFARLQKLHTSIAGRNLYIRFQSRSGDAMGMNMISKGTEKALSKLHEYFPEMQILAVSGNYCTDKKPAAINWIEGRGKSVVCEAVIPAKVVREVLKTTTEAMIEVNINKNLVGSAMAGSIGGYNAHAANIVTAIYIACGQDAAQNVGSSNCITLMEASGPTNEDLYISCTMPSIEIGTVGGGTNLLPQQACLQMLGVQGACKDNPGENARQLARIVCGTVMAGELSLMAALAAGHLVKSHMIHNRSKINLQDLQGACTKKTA
The experiment in a line: Concentration required to inhibit HMG-CoA reductase by 50% was determined in Hep G2 cell line. The assay is classed as functional, cell-based, HepG2.

For another assay, the system named is HES. The experiment in a line: Concentration required to inhibit HMG-CoA reductase by 50% was determined in HES 9 cell line. It is filed as functional, cell-based. As to conditions: Homo sapiens.
In assay [2] the target is T2, 3-hydroxy-3-methylglutaryl-coenzyme A reductase (Rattus norvegicus, UniProt P51639).
T2 sequence (P51639 whole entry): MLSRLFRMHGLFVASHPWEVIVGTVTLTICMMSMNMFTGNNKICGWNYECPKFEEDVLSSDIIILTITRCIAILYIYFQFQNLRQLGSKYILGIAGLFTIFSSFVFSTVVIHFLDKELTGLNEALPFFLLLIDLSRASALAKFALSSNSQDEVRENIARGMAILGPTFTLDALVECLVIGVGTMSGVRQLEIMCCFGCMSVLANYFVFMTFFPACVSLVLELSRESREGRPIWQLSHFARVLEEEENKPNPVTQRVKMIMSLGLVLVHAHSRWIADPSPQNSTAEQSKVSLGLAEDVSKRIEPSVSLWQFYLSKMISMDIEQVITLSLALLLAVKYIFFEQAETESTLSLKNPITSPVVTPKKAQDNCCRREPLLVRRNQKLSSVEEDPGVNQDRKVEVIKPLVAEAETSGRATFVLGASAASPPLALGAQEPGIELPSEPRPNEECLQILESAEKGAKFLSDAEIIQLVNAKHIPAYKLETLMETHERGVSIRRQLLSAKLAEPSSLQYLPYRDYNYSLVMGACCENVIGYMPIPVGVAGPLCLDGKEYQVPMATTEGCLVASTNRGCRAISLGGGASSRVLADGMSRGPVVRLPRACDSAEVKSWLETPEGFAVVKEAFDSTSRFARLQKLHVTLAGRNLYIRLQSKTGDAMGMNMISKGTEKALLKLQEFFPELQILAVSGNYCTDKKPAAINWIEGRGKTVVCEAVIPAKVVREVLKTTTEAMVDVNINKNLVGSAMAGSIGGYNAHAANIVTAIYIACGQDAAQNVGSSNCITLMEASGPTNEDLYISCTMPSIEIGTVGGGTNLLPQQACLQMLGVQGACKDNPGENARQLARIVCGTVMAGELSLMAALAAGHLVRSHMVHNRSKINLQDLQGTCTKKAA
The experiment in a line: Inhibitory activity against HMG-CoA reductase from rat liver microsomal preparation.

What is called IC50 is the concentration at which inhibition is half-maximal. A low value points to greater potency. In the case of `CC[C@H](C)C(=O)O[C@H]1C[C@H](O)C[C@@H]2C=C[C@H](C)[C@H](CCC3C[C@@H](O)CC(=O)O3)[C@@H]12` (stereo not given in full), the figures for the IC50 (in assay [1]; in the assay with HES) were 1.4 µM and 7 µM, respectively.

In the assay on HES, `CC[C@H](C)C(=O)O[C@H]1C[C@@H](C)C=C2C=C[C@H](C)[C@H](CC[C@@H]3C[C@@H](O)CC(=O)O3)[C@H]21` [LOVASTATIN] displayed an IC50 of 0.013 µM.

Take `CC[C@H](C)C(=O)O[C@H]1C[C@@H](C)C=C2C=C[C@H](C)[C@H](CC[C@@H](O)C[C@@H](O)CC(=O)O)[C@H]21`: the IC50 was found to be 0.029 µM in assay [1] and 0.017 µM in the assay with HES.

`CCC(C)(C)C(=O)O[C@H]1C[C@@H](C)C=C2C=C[C@H](C)[C@H](CC[C@@H](O)C[C@@H](O)CC(=O)O)[C@H]21`: the IC50 in assay [1] turned out to be 0.012 µM; with HES it was 0.0065 µM.

Turning to `CC[C@H](C)C(=O)O[C@H]1C[C@H](O)C[C@@H]2C=C[C@H](C)[C@H](CC[C@H](O)C[C@H](O)CC(=O)O)[C@@H]12`, the IC50 in assay [2] was 0.014 µM; in assay [1] it was 2.22 µM; with HES, 7.28 µM.
